# Measured values as given in patent US10278957B2, “Opioid agonist peptides and uses thereof” (Protagonist Therapeutics, Inc., priority 2017, dated 2019).
# pEC50: −log10 of the molar value.
# Key:
# μ-opioid receptor (MOR) = target: T1, μ-opioid receptor (MOR) (Homo sapiens, UniProt P35372); experiment: MOR agonist cAMP assay (HitHunter cAMP, forskolin-stimulated); format: cell-based
# T1 construct: host or cells: cAMP Hunter CHO-K1 OPRM1 Gαi cell line
# Description: (§1) The HitHunter® cAMP chemiluminescent assay kit (DiscoveRx, Cat# 90-0075 SM25) was used to detect cAMP production in cAMP Hunter™ Gαi cell lines over expressing either Human-ORPM1 (Discoverx, Catalog# 95-0107C2) or Human-ORPD1 (DiscoveRx, Catalog# 95-0108C2). Opioid agonist binding to the Gαi receptors inhibits the intracellular cAMP accumulation induced by forskolin, which activates adenylate cyclase and increases intracellular levels of cAMP.
# (§2) Cells were cultured in media consisting of Ham's F-12 Nutrient Mix (Life Technologies, Catalog#31765035), 10% FBS (Life Technologies, Catalog# 16140-071), 4 mM GlutaMAX (Life Technologies, Catalog#35050-061), […] (Life Technologies), 100 ug/ml of Penn-Strep (Life Technologies) and 0.5 mg/ml Geneticin (Life Technologies, Catalog# 10131-027). The cultures were maintained at 37° C. under 5% CO2.
# (§3) In preparation for cAMP assay, the cells were seeded at a density of 300,000 cells/ml in 100 ul of media/well in 96-well microplate. Wells that were designated for cAMP standards were left empty.
# (§4) Opioid agonist serial dilutions were prepared in separate dilution plate (11-point series of 3× (3-fold) dilution) in Cell Assay buffer, including 3× forskolin for Gαi target. For Hunter CHO-K1 OPRM1 or CHO-K1 OPRD1 Gαi Cell Lines, the final forskolin concentration was 20 uM.
# (§5) 15 ul of each 3× opioid agonist serial dilution was added in the presence of forskolin in duplicate to the designated wells. The final concentration of each dilution was at 3× of the final screening concentration. The assay plate was incubated for 30 min, at 37° C. under 5% CO2.
# (§6) Cellular cAMP concentrations were measured using the HitHunter cAMP Assay kit following the manufacturer's protocol. HitHunter cAMP assay is a gain-of-signal competitive immunoassay based on Enzyme Fragment Complementation (EFC) technology. The kit uses β-galactosidase (β-gal) enzyme split into Enzyme Donor (ED) and Enzyme Acceptor (EA). The cellular cAMP and ED-labelled cAMP compete for anti-cAMP antibody. […] When cellular cAMP level is high, it competes for the anti-cAMP antibody, thereby releasing ED-cAMP to complement with EA to produce a luminescent signal. The amount of signal is directly proportional to the amount of cAMP in cells and can be quantified using cAMP standards. The assay plates were read using a PerkinElmer Envision instrument to detect the chemiluminescence signal in each well (luminescence reader at 0.1 to 1 second/well). Data analysis was performed using Graphpad Prism 7.EC50 was calculated by nonlinear regression, using the four-parameter hill equation.
# δ-opioid receptor (DOR) = target: T2, δ-opioid receptor (DOR) (Homo sapiens, UniProt P41143); experiment: DOR agonist cAMP assay (HitHunter cAMP, forskolin-stimulated); format: cell-based
# T2 construct: host or cells: cAMP Hunter CHO-K1 OPRD1 Gαi cell line
# T2 sequence (P41143 whole entry): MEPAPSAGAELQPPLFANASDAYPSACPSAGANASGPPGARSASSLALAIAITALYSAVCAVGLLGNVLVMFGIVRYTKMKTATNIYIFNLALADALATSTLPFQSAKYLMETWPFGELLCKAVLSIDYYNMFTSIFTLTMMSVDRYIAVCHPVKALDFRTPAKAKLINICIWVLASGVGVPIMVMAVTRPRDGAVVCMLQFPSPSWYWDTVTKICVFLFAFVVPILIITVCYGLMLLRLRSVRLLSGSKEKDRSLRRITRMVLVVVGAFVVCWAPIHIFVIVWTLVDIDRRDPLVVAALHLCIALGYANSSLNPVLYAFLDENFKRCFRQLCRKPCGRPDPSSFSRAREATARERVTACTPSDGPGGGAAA
# Description: as §1, §2, §3, §4, §5, §6
# T1 sequence (P35372 whole entry): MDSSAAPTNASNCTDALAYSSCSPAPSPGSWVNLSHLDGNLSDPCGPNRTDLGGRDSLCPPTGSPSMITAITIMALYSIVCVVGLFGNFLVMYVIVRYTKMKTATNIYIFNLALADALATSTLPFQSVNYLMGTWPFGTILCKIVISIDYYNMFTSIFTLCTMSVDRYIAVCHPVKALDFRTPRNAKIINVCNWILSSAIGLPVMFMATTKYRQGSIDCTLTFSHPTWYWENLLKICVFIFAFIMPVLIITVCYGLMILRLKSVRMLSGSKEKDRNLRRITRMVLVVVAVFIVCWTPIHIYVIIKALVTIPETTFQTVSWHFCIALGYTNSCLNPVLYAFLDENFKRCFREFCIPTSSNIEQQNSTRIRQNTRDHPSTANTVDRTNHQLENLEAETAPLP
SMILES,pEC50 (μ-opioid receptor (MOR)),pEC50 (δ-opioid receptor (DOR))
Cc1cc(C(N)=O)cc(C)c1C[C@H](N)C(=O)N[C@H](C)C(=O)NCC(=O)N[C@H](CC(=O)N(C)[C@@H](Cc1c[nH]c2ccccc12)C(=O)O)Cc1ccccc1 [compound 106],8.00 to 9.00,8.00 to 9.00
Cc1cc(C(N)=O)cc(C)c1C[C@H](N)C(=O)N[C@H](C)C(=O)NCC(=O)N1Cc2ccccc2C[C@H]1C(=O)N(C)CC(N)=O [compound 108],8.00 to 9.00,7.30 to 8.00
CC[C@H](C)[C@@H](C(=O)O)N(C)C(=O)C[C@H](Cc1ccccc1)NC(=O)CNC(=O)[C@@H](C)NC(=O)[C@@H](N)Cc1c(C)cc(O)cc1C [compound 113],> 9.00,> 9.00
Cc1cc(O)cc(C)c1C[C@H](N)C(=O)N[C@H](C)C(=O)NCC(=O)N[C@H](CC(=O)N[C@@H](Cc1ccc2ccccc2c1)C(N)=O)Cc1ccccc1 [compound 114],8.00 to 9.00,8.00 to 9.00
Cc1cc(O)cc(C)c1C[C@H](N)C(=O)N[C@H](C)C(=O)NCC(=O)N[C@H](CC(=O)N(CC(N)=O)CC(F)(F)F)Cc1ccccc1 [compound 122],> 9.00,> 9.00
CCCCCCCCCCCCCCCCN(CC(N)=O)C(=O)C[C@H](Cc1ccccc1)NC(=O)CNC(=O)[C@@H](C)NC(=O)[C@@H](N)Cc1c(C)cc(O)cc1C [compound 125],8.00 to 9.00,8.00 to 9.00
CCCC[C@@H](C(=O)O)N(C)C(=O)C[C@H](Cc1ccc(I)cc1)NC(=O)CNC(=O)[C@@H](C)NC(=O)[C@@H](N)Cc1c(C)cc(C(N)=O)cc1C [compound 136],> 9.00,> 9.00
CCCC[C@@H](C(=O)O)N(C)C(=O)C[C@H](Cc1c[nH]c2ccccc12)NC(=O)CNC(=O)[C@@H](C)NC(=O)[C@@H](N)Cc1c(C)cc(C(N)=O)cc1C [compound 139],> 9.00,8.00 to 9.00
CCCC[C@@H](C(=O)O)N(C)C(=O)C[C@H](Cc1cccc(C)c1)NC(=O)CNC(=O)[C@@H](C)NC(=O)[C@@H](N)Cc1c(C)cc(O)cc1C [compound 141],> 9.00,> 9.00
CCCC[C@@H](C(=O)O)N(C)C(=O)C[C@H](Cc1ccc(C)cc1)NC(=O)CNC(=O)[C@@H](C)NC(=O)[C@@H](N)Cc1c(C)cc(O)cc1C [compound 142],8.00 to 9.00,> 9.00
CCCC[C@@H](C(=O)O)N(C)C(=O)C[C@H](Cc1ccccc1F)NC(=O)CNC(=O)[C@@H](C)NC(=O)[C@@H](N)Cc1c(C)cc(O)cc1C [compound 143],> 9.00,> 9.00
CCCC[C@@H](C(=O)O)N(C)C(=O)C[C@H](Cc1cccc(F)c1)NC(=O)CNC(=O)[C@@H](C)NC(=O)[C@@H](N)Cc1c(C)cc(O)cc1C [compound 144],> 9.00,> 9.00
CCCC[C@@H](C(=O)O)N(C)C(=O)C[C@H](Cc1ccc(F)cc1)NC(=O)CNC(=O)[C@@H](C)NC(=O)[C@@H](N)Cc1c(C)cc(O)cc1C [compound 145],> 9.00,> 9.00
CCCC[C@@H](C(=O)O)N(C)C(=O)C[C@H](Cc1ccccc1Br)NC(=O)CNC(=O)[C@@H](C)NC(=O)[C@@H](N)Cc1c(C)cc(O)cc1C [compound 146],> 9.00,> 9.00
CCCC[C@@H](C(=O)O)N(C)C(=O)C[C@H](Cc1ccc(I)cc1)NC(=O)CNC(=O)[C@@H](C)NC(=O)[C@@H](N)Cc1c(C)cc(O)cc1C [compound 150],> 9.00,> 9.00
CCCC[C@@H](C(=O)O)N(C)C(=O)C[C@H](Cc1cccc(Cl)c1)NC(=O)CNC(=O)[C@@H](C)NC(=O)[C@@H](N)Cc1c(C)cc(O)cc1C [compound 151],> 9.00,> 9.00
CCCC[C@@H](C(=O)O)N(C)C(=O)C[C@H](Cc1ccc(O)cc1)NC(=O)CNC(=O)[C@@H](C)NC(=O)[C@@H](N)Cc1c(C)cc(O)cc1C [compound 152],> 9.00,> 9.00
CCCC[C@@H](C(=O)O)N(C)C(=O)C[C@H](Cc1c[nH]c2ccccc12)NC(=O)CNC(=O)[C@@H](C)NC(=O)[C@@H](N)Cc1c(C)cc(O)cc1C [compound 153],8.00 to 9.00,> 9.00

SMILES,pEC50 (μ-opioid receptor (MOR)),pEC50 (δ-opioid receptor (DOR))
Cc1cc(O)cc(C)c1C[C@H](N)C(=O)N[C@H](C)C(=O)NCC(=O)N[C@H](CC(=O)N(C)[C@@H](CC1CCCCC1)C(=O)O)Cc1ccccc1 [compound 156],> 9.00,8.00 to 9.00
Cc1cc(O)cc(C)c1C[C@H](N)C(=O)N[C@H](C)C(=O)NCC(=O)N[C@H](CC(=O)N(C)[C@@H](Cc1ccccc1)C(=O)O)Cc1ccccc1 [compound 158],> 9.00,> 9.00
Cc1cc(O)cc(C)c1C[C@H](N)C(=O)N[C@H](C)C(=O)NCC(=O)N[C@H](CC(=O)N(C)[C@@H](Cc1ccc(O)cc1)C(=O)O)Cc1ccccc1 [compound 160],> 9.00,> 9.00
CCC[C@@H](C(=O)O)N(C)C(=O)C[C@H](Cc1ccccc1)NC(=O)CNC(=O)[C@@H](C)NC(=O)[C@@H](N)Cc1c(C)cc(O)cc1C [compound 162],> 9.00,> 9.00
CCCC[C@@H](C(=O)O)N(C)C(=O)C[C@H](Cc1cccc(C)c1)NC(=O)CNC(=O)[C@@H](C)NC(=O)[C@@H](N)Cc1c(C)cc(C(N)=O)cc1C [compound 164],> 9.00,> 9.00
CCCC[C@@H](C(=O)O)N(C)C(=O)C[C@H](Cc1ccc(O)cc1)NC(=O)CNC(=O)[C@@H](C)NC(=O)[C@@H](N)Cc1c(C)cc(C(N)=O)cc1C [compound 168],8.00 to 9.00,> 9.00
Cc1cc(O)cc(C)c1C[C@H](N)C(=O)N[C@H](CC(=O)O)C(=O)NCC(=O)N[C@H](CC(=O)N(C)[C@@H](CC(C)C)C(=O)O)Cc1ccccc1 [compound 169],> 9.00,> 9.00
Cc1cc(O)cc(C)c1C[C@H](N)C(=O)N[C@H](CC(=O)O)C(=O)NCC(=O)N[C@H](CC(=O)N(C)[C@@H](C)C(=O)O)Cc1ccccc1 [compound 170],> 9.00,> 9.00
Cc1cc(O)cc(C)c1C[C@H](N)C(=O)N[C@H](CC(=O)O)C(=O)NCC(=O)N[C@H](CC(=O)N(C)[C@@H](Cc1c[nH]c2ccccc12)C(=O)O)Cc1ccccc1 [compound 171],> 9.00,> 9.00
CC[C@H](C)[C@@H](C(=O)O)N(C)C(=O)C[C@H](Cc1ccccc1)NC(=O)CNC(=O)[C@@H](CC(=O)O)NC(=O)[C@@H](N)Cc1c(C)cc(O)cc1C [compound 172],> 9.00,> 9.00
Cc1cc(O)cc(C)c1C[C@H](N)C(=O)N[C@H](CC(=O)O)C(=O)NCC(=O)N[C@H](CC(=O)N(C)[C@H](C(=O)O)C(C)C)Cc1ccccc1 [compound 173],> 9.00,> 9.00
CCC[C@@H](C(=O)O)N(C)C(=O)C[C@H](Cc1ccccc1)NC(=O)CNC(=O)[C@@H](CC(=O)O)NC(=O)[C@@H](N)Cc1c(C)cc(O)cc1C [compound 174],> 9.00,> 9.00
Cc1cc(O)cc(C)c1C[C@H](N)C(=O)N[C@H](CC(=O)O)C(=O)NCC(=O)N[C@H](CC(=O)N(C)[C@@H](CC1CCCCC1)C(=O)O)Cc1ccccc1 [compound 175],> 9.00,> 9.00
Cc1cc(O)cc(C)c1C[C@H](N)C(=O)N[C@H](CC(=O)O)C(=O)NCC(=O)N[C@H](CC(=O)N(C)[C@H](C(=O)O)c1ccccc1)Cc1ccccc1 [compound 176],> 9.00,> 9.00
Cc1cc(O)cc(C)c1C[C@H](N)C(=O)N[C@H](CC(=O)O)C(=O)NCC(=O)N[C@H](CC(=O)N(C)[C@@H](Cc1ccccc1)C(=O)O)Cc1ccccc1 [compound 177],> 9.00,> 9.00
CCCC[C@@H](C(=O)O)N(C)C(=O)C[C@H](Cc1ccccc1)NC(=O)CNC(=O)[C@@H](CC(=O)O)NC(=O)[C@@H](N)Cc1c(C)cc(O)cc1C [compound 178],> 9.00,> 9.00
Cc1cc(O)cc(C)c1C[C@H](N)C(=O)N[C@H](CC(=O)O)C(=O)NCC(=O)N[C@H](CC(=O)N(C)[C@@H](Cc1ccc(O)cc1)C(=O)O)Cc1ccccc1 [compound 180],> 9.00,> 9.00
CC[C@H](C)[C@@H](C(=O)O)N(C)C(=O)C[C@H](Cc1ccccc1)NC(=O)CNC(=O)[C@H](NC(=O)[C@@H](N)Cc1c(C)cc(O)cc1C)[C@H](C)O [compound 182],> 9.00,> 9.00
